# Source: patent US10174024B2, “5H-pyrido[3,2-B]indole compounds as anticancer agents” (BRISTOL-MYERS SQUIBB COMPANY, priority 2015, dated 2019)
# Molecular target: BRD4 (Homo sapiens, UniProt O60885)
# Experiment: Time Resolved Fluorescence Resonance Energy Transfer (TR-FRET) binding assay, FRET BRD4
# Conditions: one of the FRET assays described (BRD4 bromodomain construct not specified); read-out: FRET BRD4 IC50
row,Compound,IC50 [nM]
1,"4-{5-[(3-Fluoropyridin-2-yl)(oxan-4-yl)methyl]-3-[4-(^2H3)methyl-1-methyl-1H-1,2,3-triazol-5-yl]-5H-pyrido[3,2-b]indol-7-yl}-1λ^6,4-thiomorpholine-1,1-dione [Example 68]",< 5
2,"Cc1nnn(C)c1-c1cnc2c3ccc(C4(C)CNC(=O)O4)cc3n([C@H](c3ccccc3)C3CCOCC3)c2c1 (single isomer, unassigned) [Example 9]",< 5
3,"Cc1nnn(C)c1-c1cnc2c3ccc(C4(C)CNC(=O)O4)cc3n([C@H](c3ccccc3)C3CCOCC3)c2c1 (single isomer, unassigned) [Example 10]",< 5
4,"Cc1nnn(C)c1-c1cnc2c3ccc(N4CCC(F)(F)CC4)cc3n(C(c3ccccc3)C3CCC(F)(F)CC3)c2c1 (single isomer, unassigned) [Example 75, 1-{5-[(4,4-Difluorocyclohexyl)(phenyl)methyl]-3-(dimethyl-1H-1,2,3-triazol-5-yl)-5H-pyrido[3,2-b]indol-7-yl}-4,4-difluoropiperidine]",< 5
5,"Cc1nnn(C)c1-c1cnc2c3ccc(N4CCC(F)(F)CC4)cc3n(C(c3ccccc3)C3CCC(F)(F)CC3)c2c1 (single isomer, unassigned) [Example 76, 1-{5-[(4,4-Difluorocyclohexyl)(phenyl)methyl]-3-(dimethyl-1H-1,2,3-triazol-5-yl)-5H-pyrido[3,2-b]indol-7-yl}-4,4-difluoropiperidine]",< 5
6,"Cc1nnn(C)c1-c1cnc2c3ccc(N4CCC(C(F)(F)F)CC4)cc3n(C(c3ccccc3)C3CCC(F)(F)CC3)c2c1 (single isomer, unassigned) [Example 77, 1-{5-[(4,4-Difluorocyclohexyl)(phenyl)methyl]-3-(dimethyl-1H-1,2,3-triazol-5-yl)-5H-pyrido[3,2-b]indol-7-yl}-4-(trifluoromethyl)piperidine]",< 1
7,"Cc1nnn(C)c1-c1cnc2c3ccc(N4CCC(C(F)(F)F)CC4)cc3n(C(c3ccccc3)C3CCC(F)(F)CC3)c2c1 (single isomer, unassigned) [Example 78, 1-{5-[(4,4-Difluorocyclohexyl)(phenyl)methyl]-3-(dimethyl-1H-1,2,3-triazol-5-yl)-5H-pyrido[3,2-b]indol-7-yl}-4-(trifluoromethyl)piperidine]",< 5
8,"Cc1nnn(C)c1-c1cnc2c3cc(N4C[C@@H](C)O[C@@H](C)C4)ccc3n(C(c3ccccc3)C3CCOCC3)c2c1 (stereo in doubt) [Example 3, (2R,6S)-4-[3-(Dimethyl-1H-1,2,3-triazol-5-yl)-5-[(R)-oxan-4-yl(phenyl)methyl]-5H-pyrido[3,2-b]indol-8-yl]-2,6-dimethylmorpholine]",< 5
9,"Cc1nnn(C)c1-c1cnc2c3ccc(-c4ccnn4C)cc3n([C@H](c3ccccc3)C3CCOCC3)c2c1 [Example 1, 1,4-Dimethyl-5-[7-(1-methyl-1H-pyrazol-5-yl)-5-[(S)-oxan-4-yl(phenyl)methyl]-5H-pyrido[3,2-b]indol-3-yl]-1H-1,2,3-triazole]",< 5
10,"Cc1nnn(C)c1-c1cnc2c3ccc(-c4ccon4)cc3n([C@H](c3ccccc3)C3CCOCC3)c2c1 [Example 2, 1,4-Dimethyl-5-{5-[(S)-oxan-4-yl(phenyl)methyl]-7-(1,2-oxazol-3-yl)-5H-pyrido[3,2-b]indol-3-yl}-1H-1,2,3-triazole]",< 5
11,"Cc1nnn(C)c1-c1cnc2c3cc(C4CCNCC4)ccc3n([C@H](c3ccccc3)C3CCOCC3)c2c1 [Example 4, 4-[3-(Dimethyl-1H-1,2,3-triazol-5-yl)-5-[(S)-oxan-4-yl(phenyl)methyl]-5H-pyrido[3,2-b]indol-8-yl]piperidine]",< 1
12,"Cc1noc(C)c1-c1cnc2c3cc(C4CCN(C(=O)CO)CC4)ccc3n([C@H](c3ccccc3)C3CCOCC3)c2c1 [Example 6, 1-{4-[3-(Dimethyl-1,2-oxazol-4-yl)-5-[(S)-oxan-4-yl(phenyl)methyl]-5H-pyrido[3,2-b]indol-8-yl]piperidin-1-yl}-2-hydroxyethan-1-one]",< 5
13,"CC(=O)N1CCC(c2ccc3c(c2)c2ncc(-c4c(C)noc4C)cc2n3[C@H](c2ccccc2)C2CCOCC2)CC1 [Example 7, 1-{4-[3-(Dimethyl-1,2-oxazol-4-yl)-5-[(S)-oxan-4-yl(phenyl)methyl]-5H-pyrido[3,2-b]indol-8-yl]piperidin-1-yl}ethan-1-one]",< 1
14,"CC(=O)OCC(=O)N1CCC(c2ccc3c(c2)c2ncc(-c4c(C)nnn4C)cc2n3[C@H](c2ccccc2)C2CCOCC2)CC1 [Example 8, 2-{4-[3-(Dimethyl-1H-1,2,3-triazol-5-yl)-5-[(S)-oxan-4-yl(phenyl)methyl]-5H-pyrido[3,2-b]indol-8-yl]piperidin-1-yl}-2-oxoethyl acetate]",< 5
15,"Cc1nnn(C)c1-c1cnc2c3ccc(-c4nnn[nH]4)cc3n([C@H](c3ccccc3)C3CCOCC3)c2c1 [Example 11, 5-[3-(Dimethyl-1H-1,2,3-triazol-5-yl)-5-[(S)-oxan-4-yl(phenyl)methyl]-5H-pyrido[3,2-b]indol-7-yl]-1H-1,2,3,4-tetrazole]",< 1
16,"Cc1nnn(C)c1-c1cnc2c3ccc(N4CCCOC4=O)cc3n([C@H](c3ccccc3)C3CCOCC3)c2c1 [Example 12, 3-[3-(Dimethyl-1H-1,2,3-triazol-5-yl)-5-[(S)-oxan-4-yl(phenyl)methyl]-5H-pyrido[3,2-b]indol-7-yl]-1,3-oxazinan-2-one]",< 5
17,"Cc1nnn(C)c1-c1cnc2c3cc(N4CCNCC4)ccc3n([C@H](c3ccccc3)C3CCOCC3)c2c1 [Example 13, 1-[3-(Dimethyl-1H-1,2,3-triazol-5-yl)-5-[(S)-oxan-4-yl(phenyl)methyl]-5H-pyrido[3,2-b]indol-8-yl]piperazine]",< 5
18,"CC(=O)OCC(=O)N1CCN(c2ccc3c(c2)c2ncc(-c4c(C)nnn4C)cc2n3[C@H](c2ccccc2)C2CCOCC2)CC1 [Example 14, 2-{4-[3-(Dimethyl-1H-1,2,3-triazol-5-yl)-5-[(S)-oxan-4-yl(phenyl)methyl]-5H-pyrido[3,2-b]indol-8-yl]piperazin-1-yl}-2-oxoethyl acetate]",< 5
19,"Cc1nnn(C)c1-c1cnc2c3cc(N4CCN(C5COC5)CC4)ccc3n([C@H](c3ccccc3)C3CCOCC3)c2c1 [Example 15, 1-[3-(Dimethyl-1H-1,2,3-triazol-5-yl)-5-[(S)-oxan-4-yl(phenyl)methyl]-5H-pyrido[3,2-b]indol-8-yl]-4-(oxetan-3-yl)piperazine]",< 5
20,"Cc1nnn(C)c1-c1cnc2c3ccc(-c4cnn(C(C)C)c4)cc3n([C@H](c3ccccc3)C3CCOCC3)c2c1 [Example 16, 1,4-Dimethyl-5-{5-[(S)-oxan-4-yl(phenyl)methyl]-7-[1-(propan-2-yl)-1H-pyrazol-4-yl]-5H-pyrido[3,2-b]indol-3-yl}-1H-1,2,3-triazole]",< 5
21,"Cc1n[nH]c(C)c1-c1ccc2c3ncc(-c4c(C)nnn4C)cc3n([C@H](c3ccccc3)C3CCOCC3)c2c1 [Example 17, 5-[7-(3,5-Dimethyl-1H-pyrazol-4-yl)-5-[(S)-oxan-4-yl(phenyl)methyl]-5H-pyrido[3,2-b]indol-3-yl]-1,4-dimethyl-1H-1,2,3-triazole]",< 1
22,"[2H]C([2H])([2H])c1nnn(C)c1-c1ccc2c3ncc(-c4c(C)nnn4C)cc3n([C@H](c3ccccc3)C3CCOCC3)c2c1 [Example 18, 5-[3-(Dimethyl-1H-1,2,3-triazol-5-yl)-5-[(S)-oxan-4-yl(phenyl)methyl]-5H-pyrido[3,2-b]indol-7-yl]-4-(^2H3)methyl-1-methyl-1H-1,2,3-triazole]",< 1
